Data reported in ChEMBL document CHEMBL3994632, “Selenoesters and selenoanhydrides as novel multidrug resistance reversing agents: A confirmation study in a colon cancer MDR cell line” (Bioorg Med Chem Lett, 2017).

How the values were obtained:
COLO 320 [1] = experiment: Induction of apoptosis in human COLO320 cells at 2 uM after 24 hrs by Annexin V-FITC/propidium iodide staining based flow cytometry relative to M627; format: functional
MRC5 = experiment: Cytotoxicity against human MRC5 cells after 24 hrs by MTT assay; format: ADME, cell-based; details: MRC5, 24 h
COLO 205 = experiment: Cytotoxicity against doxorubicin-sensitive human COLO205 cells after 24 hrs by MTT assay; format: functional, cell-based; details: COLO 205, 24 h
COLO 320 [2] = experiment: Cytotoxicity against multidrug resistant human COLO320 cells after 24 hrs by MTT assay; format: functional, cell-based; details: COLO 320, 24 h
[3] = Selectivity index, ratio of IC50 for human MRC5 cells to IC50 for multidrug resistant human COLO320 cells; format: functional
[4] = Selectivity index, ratio of IC50 for doxorubicin-sensitive human COLO205 cells to IC50 for multidrug resistant human COLO320 cells; format: functional
[5] = Selectivity index, ratio of IC50 for human MRC5 cells to IC50 for doxorubicin-sensitive human COLO205 cells; format: functional
[6] = target: ATP-dependent translocase ABCB1 (Homo sapiens, UniProt P08183); experiment: Inhibition of human MDR1 transfected in mouse T lymphoma cells assessed as rhodamine-123 accumulation measured as fluorescence activity ratio quotient at 2 uM preincubated for 10 mins followed by rhodamine-123 addition measured after 20 mins by flow cytometry relative to verapamil; format: cell-based; design: scale not given: the % may be the effect or the level left
COLO 320 [7] = experiment: Induction of apoptosis in human COLO320 cells assessed as late apoptotic/necrotic cells at 20 uM after 24 hrs by Annexin V-FITC/propidium iodide staining based flow cytometry (reference value: 9.93%); format: functional
COLO 320 [8] = experiment: Induction of apoptosis in human COLO320 cells assessed as early apoptotic cells at 20 uM after 24 hrs by Annexin V-FITC/propidium iodide staining based flow cytometry (reference value: 20.3%); format: functional
COLO 320 [9] = experiment: Induction of apoptosis in human COLO320 cells assessed as cell death at 20 uM after 24 hrs by Annexin V-FITC/propidium iodide staining based flow cytometry (reference value: 4.75%); format: functional

Chain of ATP-dependent translocase ABCB1 (P08183 whole entry): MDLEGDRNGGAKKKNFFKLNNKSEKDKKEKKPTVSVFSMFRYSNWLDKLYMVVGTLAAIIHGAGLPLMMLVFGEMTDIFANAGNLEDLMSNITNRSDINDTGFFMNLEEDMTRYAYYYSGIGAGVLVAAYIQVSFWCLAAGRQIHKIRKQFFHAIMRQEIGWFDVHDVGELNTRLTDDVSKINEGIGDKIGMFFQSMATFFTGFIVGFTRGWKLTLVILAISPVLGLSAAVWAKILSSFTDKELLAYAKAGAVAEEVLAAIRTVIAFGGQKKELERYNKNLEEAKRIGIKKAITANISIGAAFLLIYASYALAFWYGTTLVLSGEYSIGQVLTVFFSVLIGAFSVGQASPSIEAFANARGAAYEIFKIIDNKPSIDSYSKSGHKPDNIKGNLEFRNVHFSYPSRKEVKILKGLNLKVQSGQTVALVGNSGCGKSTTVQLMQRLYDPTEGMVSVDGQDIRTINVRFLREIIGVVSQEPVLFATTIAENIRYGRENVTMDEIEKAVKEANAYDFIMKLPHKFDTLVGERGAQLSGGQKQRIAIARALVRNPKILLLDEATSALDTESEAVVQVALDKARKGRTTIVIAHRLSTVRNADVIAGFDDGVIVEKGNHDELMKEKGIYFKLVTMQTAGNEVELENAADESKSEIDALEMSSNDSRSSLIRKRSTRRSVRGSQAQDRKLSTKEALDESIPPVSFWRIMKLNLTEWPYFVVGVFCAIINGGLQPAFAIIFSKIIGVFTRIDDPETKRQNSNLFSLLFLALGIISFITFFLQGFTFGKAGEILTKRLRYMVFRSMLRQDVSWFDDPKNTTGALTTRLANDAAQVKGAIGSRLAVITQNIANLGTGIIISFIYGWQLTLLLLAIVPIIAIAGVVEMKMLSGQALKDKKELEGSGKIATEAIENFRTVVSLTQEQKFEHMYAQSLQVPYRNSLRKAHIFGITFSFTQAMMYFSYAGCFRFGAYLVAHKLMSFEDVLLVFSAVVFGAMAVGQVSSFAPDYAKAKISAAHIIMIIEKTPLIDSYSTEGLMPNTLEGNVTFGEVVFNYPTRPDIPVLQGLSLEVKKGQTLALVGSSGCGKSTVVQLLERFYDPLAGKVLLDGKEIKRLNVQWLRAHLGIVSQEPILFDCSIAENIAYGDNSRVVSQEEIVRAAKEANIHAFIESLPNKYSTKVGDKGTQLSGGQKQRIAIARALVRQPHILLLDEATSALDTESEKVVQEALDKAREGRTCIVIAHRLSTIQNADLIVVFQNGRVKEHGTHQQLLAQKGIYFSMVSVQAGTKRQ

SMILES | Activity (COLO 320 [1]) | IC50 (MRC5) | IC50 (COLO 205) | IC50 (COLO 320 [2]) | Ratio IC50 [3] | Ratio IC50 [4] | Ratio IC50 [5] | Activity [6] | Activity (COLO 320 [7]) | Activity (COLO 320 [8]) | Activity (COLO 320 [9])
N#C[O-].[K+] | 7.28% | > 100 µM | > 100 µM | > 100 µM |  |  |  |  |  |  | 
CC(=O)C[Se]C(=O)c1ccc(Cl)cc1 | 87.7% | 5.35 µM | 5.48 µM | 0.55 µM | 9.7 | 10 | 0.98 |  |  |  | 
O=C1[Se]C(=O)c2ccccc21 | 88.4% | > 100 µM | > 100 µM | 63.9 µM | >=1.6 | >=1.6 |  |  |  |  | 
N.N#CS | 9.55% | > 100 µM | > 100 µM | > 100 µM |  |  |  |  |  |  | 
N#C[Se-].[K+] | 6.98% | > 100 µM | > 100 µM | > 100 µM |  |  |  |  |  |  | 
C[Se]C(=O)c1cccc(C(=O)[Se]C)n1 | 36.9% | 17.9 µM | > 100 µM | > 100 µM | <=0.18 |  | <=0.18 |  |  |  | 
COc1cc(OC)cc(C(=O)[Se]CC(=O)C(C)(C)C)c1 | 88.7% | 5.04 µM | 1.19 µM | 0.35 µM | 14.4 | 3.4 | 4.2 | 46 to 228% |  |  | 
O=C(C[Se]C(=O)c1ccccc1)Oc1ccccc1 | 43% | > 100 µM | > 100 µM | 53.7 µM | >=1.9 | >=1.9 |  |  |  |  | 
COC(=O)C[Se]C(=O)c1ccc(Cl)cc1 | 43.4% | 33.4 µM | > 100 µM | > 100 µM | <=0.33 |  | <=0.33 |  |  |  | 
C[Se]C(=O)c1cccc(C(=O)[Se]C)c1 | 36.3% | 28.4 µM | > 100 µM | 12.5 µM | 2.3 | >=8 | <=0.28 |  |  |  | 
O=C1OC(=O)c2ccccc21 [PHTHALIC ANHYDRIDE] | 6.06% | > 100 µM | > 100 µM | > 100 µM |  |  |  |  |  |  | 
NC(=O)C[Se]C(=O)c1ccccc1 | 37.3% | 76.6 µM | > 100 µM | > 100 µM | <=0.77 |  | <=0.77 |  |  |  | 
c1ccc2c(c1)Nc1c(ccc3ccccc13)S2 |  |  |  |  |  |  |  |  | 22% | 58.5% | 2.91%
C[Se]C(=O)c1ccc(C(=O)[Se]C)cc1 | 36.9% | 61.5 µM | > 100 µM | > 100 µM | <=0.62 |  | <=0.62 |  |  |  | 
CC(C)(C)C(=O)C[Se]C(=O)c1ccc(Cl)cc1 | 80.3% | 8.1 µM | 1.63 µM | 0.96 µM | 8.4 | 1.7 | 5 | 34 to 217% |  |  | 
C[Se]C(=O)c1ccc(C(=O)[Se]C)s1 | 30.4% | 4.26 µM | > 100 µM | > 100 µM | <=0.04 |  | <=0.04 |  |  |  | 
